Data published in patent US20260216149A1, “USE OF DIAZAPHENANTHRENE PROTONATED DIMER” (XI’AN LIZE TECHNOLOGY PROJECT INVESTMENT CO., LTD., priority 2023, published 2026).

What was measured:
S. epidermidis = assay: Tests for MIC and MBC; type: cell-based, Staphylococcus epidermidis; conditions: unit assumed; for MIC: 12 h culture, absorbance 600 nm; for MBC: subculture further 12 h
A. niger = assay: Tests for MIC and MFC; type: cell-based, Aspergillus niger; conditions: unit assumed; for MIC: 12 h culture, absorbance 600 nm; for MFC: subculture further 12 h
B. cereus = assay: Tests for MIC and MBC; type: cell-based, Bacillus cereus; conditions: unit assumed; for MIC: 12 h culture, absorbance 600 nm; for MBC: subculture further 12 h
E. coli = conditions: 12 h culture, absorbance 600 nm
S. enteritidis = assay: Tests for MIC and MBC; type: cell-based, Salmonella enteritidis; conditions: unit assumed; for MIC: 12 h culture, absorbance 600 nm; for MBC: subculture further 12 h
C. perfringens = conditions: 12 h culture, absorbance 600 nm
S. bovis = assay: Tests for MIC and MBC; type: cell-based, Streptococcus bovis; conditions: unit assumed; for MIC: 12 h culture, absorbance 600 nm; for MBC: subculture further 12 h
S. mutans = assay: Tests for MIC and MBC; type: cell-based, Streptococcus mutans; conditions: unit assumed; for MIC: 12 h culture, absorbance 600 nm; for MBC: subculture further 12 h
M. globosa = assay: Tests for MIC and MFC; type: cell-based, Malassezia globosa; conditions: unit assumed; for MIC: 12 h culture, absorbance 600 nm; for MFC: subculture further 12 h
B. subtilis = assay: Tests for MIC and MBC; type: cell-based, Bacillus subtilis; conditions: unit assumed; for MIC: 12 h culture, absorbance 600 nm; for MBC: subculture further 12 h
S. thermophilus = assay: Tests for MIC and MBC; type: cell-based, Streptococcus thermophilus; conditions: unit assumed; for MIC: 12 h culture, absorbance 600 nm; for MBC: subculture further 12 h
P. fluorescens = assay: Tests for MIC and MBC; type: cell-based, Pseudomonas fluorescens; conditions: unit assumed; for MIC: 12 h culture, absorbance 600 nm; for MBC: subculture further 12 h
M. furfur = assay: Tests for MIC and MFC; type: cell-based, Malassezia furfur; conditions: unit assumed; for MIC: 12 h culture, absorbance 600 nm; for MFC: subculture further 12 h
K. pneumoniae = assay: Tests for MIC and MBC; type: cell-based, Klebsiella pneumoniae; conditions: unit assumed; for MIC: 12 h culture, absorbance 600 nm; for MBC: subculture further 12 h
H. staphylococcus = assay: Tests for MIC and MBC; type: cell-based, hemolytic staphylococcus; conditions: unit assumed; for MIC: 12 h culture, absorbance 600 nm; for MBC: subculture further 12 h
E. faecalis = assay: Tests for MIC and MBC; type: cell-based, Enterococcus faecalis; conditions: unit assumed; for MIC: 12 h culture, absorbance 600 nm; for MBC: subculture further 12 h
L. monocytogenes = assay: Tests for MIC and MBC; type: cell-based, Listeria monocytogenes; conditions: unit assumed; for MIC: 12 h culture, absorbance 600 nm; for MBC: subculture further 12 h
C. neoformans = assay: Tests for MIC and MFC; type: cell-based, Cryptococcus neoformans; conditions: unit assumed; for MIC: 12 h culture, absorbance 600 nm; for MFC: subculture further 12 h
S. lactis = assay: Tests for MIC and MBC; type: cell-based, Streptococcus lactis; conditions: unit assumed; for MIC: 12 h culture, absorbance 600 nm; for MBC: subculture further 12 h
S. aureus = conditions: 12 h culture, absorbance 600 nm
A. flavus = assay: Tests for MIC and MFC; type: cell-based, Aspergillus flavus; conditions: unit assumed; for MIC: 12 h culture, absorbance 600 nm; for MFC: subculture further 12 h
Y. enterocolitis = assay: Tests for MIC and MBC; type: cell-based, Yersinia enterocolitis; conditions: unit assumed; for MIC: 12 h culture, absorbance 600 nm; for MBC: subculture further 12 h
P. aeruginosa = assay: Tests for MIC and MBC; type: cell-based, Pseudomonas aeruginosa; conditions: unit assumed; for MIC: 12 h culture, absorbance 600 nm; for MBC: subculture further 12 h
T. rubrum = assay: Tests for MIC and MFC; type: cell-based, Trichophyton rubrum; conditions: unit assumed; for MIC: 12 h culture, absorbance 600 nm; for MFC: subculture further 12 h
P. vulgaris = assay: Tests for MIC and MBC; type: cell-based, Proteus vulgaris; conditions: unit assumed; for MIC: 12 h culture, absorbance 600 nm; for MBC: subculture further 12 h
C. albicans = assay: Tests for MIC and MFC; type: cell-based, Candida albicans; conditions: unit assumed; for MIC: 12 h culture, absorbance 600 nm; for MFC: subculture further 12 h
C. diphtheriae = conditions: 12 h culture, absorbance 600 nm
[1] = test system: Human neuroblastoma SH-SY5Y cell line; assay: IC50 determination (CCK-8); type: cell-based; conditions: DMEM/F12, treated 8 h
Experimental: (§1) The cells were washed with PBS (pH 7.4), added with a CCK-8 solution (Beijing Beyotime Biotechnology) to each well according to the instructions, and then incubated for 4 h.

[2] = test system: Mouse melanoma B16 cell line; assay: IC50 determination (CCK-8); type: cell-based; conditions: B16, RPMI 1640, treated 8 h
Experimental: as §1

[3] = test system: Mouse liver cancer H22 cell line; assay: IC50 determination (CCK-8); type: cell-based; conditions: H22, RPMI 1640, treated 8 h
Experimental: as §1

[4] = test system: Human lung adenocarcinoma A549 cell line; assay: IC50 determination (CCK-8); type: cell-based; conditions: A549, DMEM HG, treated 8 h
Experimental: as §1

[5] = test system: Human neuroglioma U521MG cell Line; assay: IC50 determination (CCK-8); type: cell-based; conditions: DMEM HG, treated 8 h
Experimental: as §1

Cryptococcus neoformans = assay: Test for Cryptococcus-infected mice; type: in vivo; conditions: Example 1 2, 4, 8 mg/kg iv, fluconazole 8 mg/kg ip

In the case of `F[Si-2](F)(F)(F)(F)F.c1cnc2c(c1)ccc1ccc[nH+]c12.c1cnc2c(c1)ccc1ccc[nH+]c12.c1cnc2c(c1)ccc1cccnc12.c1cnc2c(c1)ccc1cccnc12` [Example 2], the MIC (S. epidermidis) is reported as 0.4 µg/mL, the MBC (S. epidermidis) is reported as 2.5 µg/mL and the MIC (A. niger) is reported as 0.4 µg/mL. The MFC (A. niger) was 4 µg/mL, the MIC (B. cereus) was 2 µg/mL and the MBC (B. cereus) was 6 µg/mL. The MIC (E. coli) was 0.4, the MIC (S. enteritidis) was 0.8 µg/mL and the MBC (S. enteritidis) was 4 µg/mL. For the same compound, the MIC (C. perfringens) was 2.5, the MIC (S. bovis) was 0.6 µg/mL and the MBC (S. bovis) was 2 µg/mL. It also gave an MIC (S. mutans) of 0.8 µg/mL, an MBC (S. mutans) of 4 µg/mL and an MIC (M. globosa) of 2 µg/mL. The MFC (M. globosa) was 10 µg/mL, the MIC (B. subtilis) was 0.6 µg/mL and the MBC (B. subtilis) was 2.5 µg/mL. The MIC (S. thermophilus) was 0.8 µg/mL, the MBC (S. thermophilus) was 4 µg/mL and the MIC (P. fluorescens) was 0.4 µg/mL. The MBC (P. fluorescens) was 3 µg/mL, the MIC (M. furfur) was 1 µg/mL and the MFC (M. furfur) was 6 µg/mL. For the same compound, the MIC (K. pneumoniae) was 0.8 µg/mL, the MBC (K. pneumoniae) was 5 µg/mL and the MIC (H. staphylococcus) was 0.2 µg/mL. The MBC (H. staphylococcus) was 0.5 µg/mL, the MIC (E. faecalis) was 6 µg/mL and the MBC (E. faecalis) was 20 µg/mL. The MIC (L. monocytogenes) was 0.3 µg/mL, the MBC (L. monocytogenes) was 1.2 µg/mL and the MIC (C. neoformans) was 0.4 µg/mL. It also gave an MFC (C. neoformans) of 5 µg/mL, an MIC (S. lactis) of 1.2 µg/mL and an MBC (S. lactis) of 4 µg/mL. For the same compound, the MIC (S. aureus) was 0.4, the MIC (A. flavus) was 0.4 µg/mL and the MFC (A. flavus) was 6 µg/mL. The MIC (Y. enterocolitis) was 0.4 µg/mL, the MBC (Y. enterocolitis) was 2 µg/mL and the MIC (P. aeruginosa) was 0.4 µg/mL. It also gave an MBC (P. aeruginosa) of 2 µg/mL, an MIC (T. rubrum) of 1.6 µg/mL and an MFC (T. rubrum) of 10 µg/mL. The MIC (P. vulgaris) was 0.8 µg/mL, the MBC (P. vulgaris) was 4 µg/mL and the MIC (C. albicans) was 0.4 µg/mL. It also gave an MFC (C. albicans) of 8 µg/mL and an MIC (C. diphtheriae) of 1.6.

With `O=S(=O)(O)O.c1cnc2c(c1)ccc1cccnc12.c1cnc2c(c1)ccc1cccnc12.c1cnc2c(c1)ccc1cccnc12.c1cnc2c(c1)ccc1cccnc12` [Example 3] the MIC (S. epidermidis) was 0.5 µg/mL, the MBC (S. epidermidis) was 3 µg/mL and the MIC (A. niger) was 0.5 µg/mL. It also gave an MFC (A. niger) of 6 µg/mL, an MIC (B. cereus) of 2 µg/mL and an MBC (B. cereus) of 9 µg/mL. For the same compound, the MIC (E. coli) was 0.5, the MIC (S. enteritidis) was 1 µg/mL and the MBC (S. enteritidis) was 5 µg/mL. It also gave an MIC (C. perfringens) of 3, an MIC (S. bovis) of 0.8 µg/mL and an MBC (S. bovis) of 3 µg/mL. The MIC (S. mutans) was 1 µg/mL, the MBC (S. mutans) was 5 µg/mL and the MIC (M. globosa) was 2 µg/mL. The MFC (M. globosa) was 12 µg/mL, the MIC (B. subtilis) was 0.6 µg/mL and the MBC (B. subtilis) was 3 µg/mL. The MIC (S. thermophilus) was 1 µg/mL, the MBC (S. thermophilus) was 5 µg/mL and the MIC (P. fluorescens) was 0.5 µg/mL. The MBC (P. fluorescens) was 3 µg/mL, the MIC (M. furfur) was 1 µg/mL and the MFC (M. furfur) was 6 µg/mL. The MIC (K. pneumoniae) was 1 µg/mL, the MBC (K. pneumoniae) was 6 µg/mL and the MIC (H. staphylococcus) was 0.2 µg/mL. For the same compound, the MBC (H. staphylococcus) was 0.6 µg/mL, the MIC (E. faecalis) was 8 µg/mL and the MBC (E. faecalis) was 30 µg/mL. It also gave an MIC (L. monocytogenes) of 0.3 µg/mL, an MBC (L. monocytogenes) of 1.5 µg/mL and an MIC (C. neoformans) of 0.5 µg/mL. For the same compound, the MFC (C. neoformans) was 6 µg/mL, the MIC (S. lactis) was 1.5 µg/mL and the MBC (S. lactis) was 6 µg/mL. It also gave an MIC (S. aureus) of 0.5, an MIC (A. flavus) of 0.5 µg/mL and an MFC (A. flavus) of 6 µg/mL. For the same compound, the MIC (Y. enterocolitis) was 0.5 µg/mL, the MBC (Y. enterocolitis) was 3 µg/mL and the MIC (P. aeruginosa) was 0.5 µg/mL. For the same compound, the MBC (P. aeruginosa) was 3 µg/mL, the MIC (T. rubrum) was 2 µg/mL and the MFC (T. rubrum) was 12 µg/mL. The MIC (P. vulgaris) was 1 µg/mL, the MBC (P. vulgaris) was 6 µg/mL and the MIC (C. albicans) was 0.5 µg/mL. It also gave an MFC (C. albicans) of 9 µg/mL and an MIC (C. diphtheriae) of 2.

With `F[P-](F)(F)(F)(F)F.O=[N+]([O-])c1cc2ccc[nH+]c2c2ncccc12.O=[N+]([O-])c1cc2cccnc2c2ncccc12` [Example 7] the MIC (B. cereus) was 0.5 µg/mL, the MBC (B. cereus) was 4 µg/mL and the IC50 [1] was 32 µM. For the same compound, the IC50 [2] was 320 µM, the IC50 [3] was 320 µM and the IC50 [4] was 320 µM. The IC50 [5] was 320 µM.

For `OC(Cn1cncn1)(Cn1cncn1)c1ccc(F)cc1F` [fluconazole], the “pathological symptoms of brains and lungs (cerebral edema, pneumonia)” value (Cryptococcus neoformans) was “pathological symptoms were improved” and the “Cryptococcus-infected symptoms and weight” value (Cryptococcus neoformans; once a day for 9 days) was “the symptoms were improved, and the weight gained”.
